Measured values from patent publication US4402972A, “Cyclopropane carboxylic acid derivatives” (Roussel Uclaf, priority 1980, dated 1983).

Columns and labels:
[1] = system: Epilachna varivestris Larvae; test: Activity against Epilachna varivestris larvae, topical application; format: in vivo; conditions: for LD50: topical, second last stage larvae, 72 hours
Experimental: The test was carried out by topical application of the test compounds as in test B and the larvae of Epilachna variestris were in second last stage. The treated larvae were then placed on bean plants and the number of dead was determined after 72 hours to calculate the LD50 in ng.

houseflies [2] = test: Knock-down activity on houseflies, direct spray in Kearns and March chamber; format: in vivo; conditions: for KT50: 0.25 g/l solution, 2 ml, direct spray, 4 day old females
Experimental: 50 4 day old female houseflies per dose were directly sprayed in a Kearns and March chamber with a solution of the 0.25 g/l of the test compound in 2 ml of a mixture of 5% of acetone and Isopar L (petroleum solvent) in one second.

houseflies [3] = test: Insecticidal activity on houseflies, topical application; format: in vivo; conditions: 1 μl acetone solution, dorsal thorax, 4 day old females, 24 hours
Experimental: The test was effected on 4 day old female houseflies which received a topical application of 1 μl of an acetone solution of the test compound on the dorsal thorax with an Arnold micro-manipulator. 50 insects were used for each test and the number of dead insects were determined after 24 hours to calculate the LD50 dose in nanograms (the dose killing 50% of the insects).

[4] = system: Spodoptera littoralis larvae; test: Activity against Spodoptera littoralis larvae, topical application; format: in vivo; conditions: dorsal thorax, fourth stage larvae, 48 hours
Experimental: The test was carried out on larvae of Spodoptera littoralis by applying an acetone solution of the test compound with an Arnold micro-manipulator to the dorsal thorax of the larvae. 10 to 15 larvae were used for each tested dose and the larvae were in the fourth stage (about 10 days old at 24° C. and 65% relative humidity). The larvae were then placed in an artifical medium (Poitout medium) and the number of dead were determined after 48 hours to calculate the LD50 in ng.

[5] = system: mixture of spores of Aerobacter aerogenes, Pseudomonas aeruginosa, Escherichia coli, Serratia mancescens and Bacillus subtilis; test: Bactericidal activity (3% carboxymethyl starch in water); format: cell-based; conditions: for bacterial population after 48 hours: control 12 × 10^7; for bacterial population after 8 days: control 16 × 10^7
Experimental: The bactericidal activity of (1R,cis) 2,2-dimethyl-3-[Z-2-(methoxycarbonyl)-ethenyl]-cyclopropane-carboxylic acid was determined with a solution of 3% of carboxymethyl starch in water. The test compound was placed in 1 ml of water and 5 ml of an innoculum of a mixture of spores of Aerobacter aerogenes, Pseudomonas aeruginosa, Escherichia coli, Serratia mancescens and Bacillus subtilis were added thereto. The mixture was placed in an oven for 48 hours at 37° C. and then for 6 days at 20° C. The bacterial population ([…]) was determined 48 hours and 8 days by the serum dihibition method and incorporation into broth containing agar.

[6] = system: Fusarium, Penicillium, Aspergilus, Geotrichum, Trichosporon and Cephalosporium; test: Antifungal activity of the acids (general statement); format: cell-based
[7] = system: mixture of spores of Fusarium roseum, Penicillium roquefonti and Aspergilus niger; test: Antifungal activity, adhesive test (3% carboxymethyl starch); format: cell-based; conditions: for Growth of Fungus after 48 hours / Growth of Fungus after 8 days: scale of 3 to 0, untreated control 3
Experimental: The antifungal activity of (1R,cis) 2,2-dimethyl-3-[Z-2-(methoxycarbonyl)-ethenyl]-cyclopropane-carboxylic acid was determined in an adhesive test using an aqueous 3% carboxymethyl starch solution. The test compound was dissolved in 1 ml of acetone and 5 ml of an innoculum consisting of a mixture of spores of Fusarium roseum, Penicillium roquefonti and Aspergilus niger were added thereto. The development of fungus after 48 hours and 8 days was compared to an untreated control on a scale of 3 to 0.

[8] = system: mixture of spores of Geotrichum, Trichosporon and Cephalosporium; test: Anti-fungal test on oils (3% synthetic fluid); format: cell-based; conditions: for Anti-fungal growth after 48 hours: control 49 × 10^3 Geo. + 80 × 10^3 Tri. + 11 × 10^3 Cep.
Experimental: A solution of 3% of synthetic fluid was used to test the anti-fungal activity of (1R,cis) 2,2-dimethyl-3-[Z-2-(methoxycarbonyl)-ethenyl]-cyclopropane-carboxylic acid and contamination was effected with 5 ml of an innoculum consisting of a mixture of spores of Geotrichum, Trichosporon and Cephalosporium.

[9] = system: Rhipicephalus appendiculatus; test: Activity against Rhipicephalus appendiculatus ticks; format: in vivo
Experimental: (§1) A 10% emulsifiable concentrate was prepared by dissolving the test compound of Example 6 in a mixture of dimethylformamide, emulsifiers and Arcopal and the concentrate was diluted with water to obtain solutions of 10,5 and 1 ppm of active compound. The different solutions were sprayed by a spraying tower on to larvae of tropical cattle ticks of the Boophilus microplus type (Mexico sensitive and DDT resistant strains) and the number of dead and live larvae was determined after 24 hours.
(§2) The test procedure of F was repeated with the compound of Example 6 at doses of 100, 10 and 1 ppm using 10 ticks of Rhipicephalus appendiculatus or Amblyomma hebraeum per test as above.

[10] = system: Boophilus microplus larvae (DDT resistant); test: Activity against Boophilus microplus larvae, DDT resistant strain; format: in vivo
Experimental: as §1

[11] = system: Boophilus microplus ticks (Mexico sensitive strain); test: Inhibition of reproduction of Boophilus microplus ticks; format: in vivo
Experimental: Female Boophilus microplus ticks of the Mexico sensitive strain ready to lay eggs were immersed for 5 minutes in solutions of 100, 50, 25, 12.50 and 6.25 ppm of the compound of Example 6 and then they were placed in a heated enclosure to lay their eggs.

Amblyomma hebraeum = test: Activity against Amblyomma hebraeum ticks; format: in vivo
Experimental: as §1, §2

[12] = system: Boophilus microplus larvae (Mexico sensitive); test: Activity against Boophilus microplus larvae, Mexico sensitive strain; format: in vivo
Experimental: as §1

insects = test: Insecticidal activity (general statement); conditions: in vivo
[13] = Mexico sensitive and DDT resistant strains together
[14] = Rhipicephalus microplus, in Bos taurus, 1 ppm, 24 hours
[15] = Rhipicephalus microplus, in Bos taurus, 5 ppm, 24 hours
[16] = Rhipicephalus microplus, in Bos taurus, 10 ppm, 24 hours

## CC(C)OC(=O)/C=C\[C@H]1[C@@H](C(=O)O[C@H](C#N)c2cccc(Oc3ccccc3)c2)C1(C)C [Example 5, (S)α-cyano-3-phenoxy-benzyl (1R,cis) 2,2-dimethyl-3-[Z-2-(isopropoxycarbonyl)-ethenyl]-cyclopropane-carboxylate]
[1]
  LD50: 3.705 ng
Houseflies [2]
  KT50: 4.390 min
Houseflies [3]
  LD50: 2.781 ng
[4]
  LD50: 7.920 ng

## COC(=O)/C=C\[C@H]1[C@@H](C(=O)O)C1(C)C (relative stereo) [(1R,cis) 2,2-dimethyl-3-[(Z)-2-(methoxycarbonyl)-ethenyl]-cyclopropane-carboxylic acid]
[5]
  bactericidal activity (in words): good bactericidal activity
[5]; 0.025%
  bacterial population after 48 hours: 10 × 10^4 colorless ml
  bacterial population after 8 days: 16 × 10^6 colorless ml
[5]; 0.05%
  bacterial population after 48 hours: 52 × 10^2 colorless ml
  bacterial population after 8 days: 68 × 10^4 colorless ml
[6]
  fungicidal properties / antifungal activity (in words): interesting fungicidal properties
[7]
  anti-fungal activity (in words): good anti-fungal activity
[7]; 0.01 % concentration
  Growth of Fungus after 48 hours: 3
  Growth of Fungus after 8 days: 3
[7]; 0.05 % concentration
  Growth of Fungus after 48 hours: 0
  Growth of Fungus after 8 days: 0
[8]
  antifungal activity on oils (in words): good antifungal activity
[8]; 0.5 % concentration
  Anti-fungal growth after 48 hours: 0
[8]; 1 % concentration
  Anti-fungal growth after 48 hours: 0

## CC(C)(C)OC(=O)/C=C\[C@H]1[C@@H](C(=O)O[C@H](C#N)c2cccc(Oc3ccccc3)c2)C1(C)C [Example 6, (S)α-cyano-3-phenoxy-benzyl (1R,cis) 2,2-dimethyl-3-[Z-2-(tert.-butoxycarbonyl)-ethenyl]-cyclopropane-carboxylate]
[9]; Rhipicephalus appendiculatus, 1 ppm
  mortality at 1 ppm: 100%
[9]; Rhipicephalus appendiculatus, 10 ppm
  mortality at 10 ppm: 100%
[9]; Rhipicephalus appendiculatus, 100 ppm
  mortality at 100 ppm: 100%
[9]; in vivo
  tickicide activity against Rhipicephalus appendiculatus (in words): excellent tickicide activity
[1]; in vivo
  insecticidal activity against Epilachna larvae (in words): good insecticidal activity
[1]
  LD50: 0.446 ng
[10]; [13]
  activity against Boophilus microplus larvae, DDT resistant (in words): remarkable activity
[10]; [14]
  mortality at 1 ppm: 100%
[10]; [15]
  mortality at 5 ppm: 100%
[10]; [16]
  mortality at 10 ppm: 100%
[11]; Rhipicephalus microplus, 5 min, 6.25 ppm, 5 minutes immersion
  inhibition at 6.25 ppm: 100%
[11]; Rhipicephalus microplus, 5 min, 12.50 ppm, 5 minutes immersion
  inhibition at 12.5 ppm: 100%
[11]; Rhipicephalus microplus, 5 min, 25 ppm, 5 minutes immersion
  inhibition at 25 ppm: 100%
[11]; Rhipicephalus microplus, 5 min, 50 ppm, 5 minutes immersion
  inhibition at 50 ppm: 100%
[11]; Rhipicephalus microplus, 5 min, 100 ppm, 5 minutes immersion
  inhibition at 100 ppm: 100%
[11]; in vivo
  tickicide activity, reproduction test (in words): remarkable tickicide activity
Amblyomma hebraeum; Amblyomma hebraeum, 1 ppm
  mortality at 1 ppm: 70%
Amblyomma hebraeum; Amblyomma hebraeum, 10 ppm
  mortality at 10 ppm: 100%
Amblyomma hebraeum; Amblyomma hebraeum, 100 ppm
  mortality at 100 ppm: 100%
Amblyomma hebraeum; in vivo
  tickicide activity against Amblyomma hebraeum (in words): excellent tickicide activity
[12]; [13]
  activity against Boophilus microplus larvae, Mexico sensitive (in words): remarkable activity
[12]; [14]
  mortality at 1 ppm: 100%
[12]; [15]
  mortality at 5 ppm: 100%
[12]; [16]
  mortality at 10 ppm: 100%

## CCOC(=O)/C=C\[C@H]1[C@@H](C(=O)O[C@H](C#N)c2cccc(Oc3ccccc3)c2)C1(C)C [Example 3, (S)α-cyano-3-phenoxy-benzyl (1R,cis) 2,2-dimethyl-3-[Z-2-(ethoxycarbonyl)-ethenyl]-cyclopropane-carboxylate]
[1]
  LD50: 8.850 ng
Houseflies [2]
  KT50: 3.340 min
Houseflies [3]
  LD50: 3.494 ng
[4]
  LD50: 3.260 ng

## COC(=O)/C=C\[C@H]1[C@@H](C(=O)O[C@H](C#N)c2cccc(Oc3ccccc3)c2)C1(C)C [Example 1, (S)α-cyano-3-phenoxy-benzyl (1R,cis) 2,2-dimethyl-3-[Z-2-methoxycarbonyl-ethenyl]-cyclopropane-carboxylate]
[1]
  LD50: 8.290 ng
Houseflies [2]
  KT50: 1.226 min
Houseflies [2]; in vivo
  knock-down activity (in words): remarkable knock-down activity
Houseflies [3]
  LD50: 7.128 ng
[4]
  LD50: 3.602 ng
insects
  insecticidal activity (in words): particularly remarkable insecticidal activity
